Data on 49 molecules can be found in publication PMC3265452 (PLoS Neglected Tropical Diseases, 2012).

Structures can show the parent of a compound that is named as a salt.

AaDOP2, sequence (H6D5H2 1-476): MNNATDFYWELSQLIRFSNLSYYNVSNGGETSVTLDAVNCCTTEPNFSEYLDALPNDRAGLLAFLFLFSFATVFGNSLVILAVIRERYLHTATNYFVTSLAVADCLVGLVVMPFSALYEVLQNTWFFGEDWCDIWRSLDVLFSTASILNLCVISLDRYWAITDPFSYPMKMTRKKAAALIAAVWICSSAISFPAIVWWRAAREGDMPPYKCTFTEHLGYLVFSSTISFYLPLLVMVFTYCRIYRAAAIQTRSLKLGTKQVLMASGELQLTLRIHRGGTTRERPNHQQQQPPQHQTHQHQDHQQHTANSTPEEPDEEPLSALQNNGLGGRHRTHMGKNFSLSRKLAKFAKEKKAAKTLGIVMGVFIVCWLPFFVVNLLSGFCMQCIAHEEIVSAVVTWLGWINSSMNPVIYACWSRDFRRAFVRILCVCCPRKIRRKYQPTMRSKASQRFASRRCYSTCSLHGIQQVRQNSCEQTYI

The first assay addresses AaDOP2 (Aedes aegypti, UniProt H6D5H2). As to the kind of experiment: AaDOP2 antagonist screen of the LOPAC1280 library (HEK-CRELuc-Aadop2 cells, luminescence). Type of assay: cell-based.
Conditions: not given
Regarding `O=c1ccn([C@@H]2O[C@H](COP(=O)([O-])OP(=O)([O-])[O-])[C@@H](O)[C@H]2O)c(=O)[nH]1.[Na+].[Na+].[Na+]` [Compound 1233, Uridine 5'-diphosphate sodium], the “Compound effect (percent receptor signaling in presence of test compound, relative lux units relative to the SCH23390 control)” value worked out at 78.

As for `C[C@]12C=CC(=O)C=C1CC[C@@H]1C2=CC[C@]2(C)[C@@H](C(=O)CN3CCN(c4cc(N5CCCC5)nc(N5CCCC5)n4)CC3)CC[C@@H]12.O=C(O)/C=C\C(=O)O` [Compound 1234, U-74389G maleate], the “Compound effect (percent receptor signaling in presence of test compound, relative lux units relative to the SCH23390 control)” value came to 88.

Regarding `Cc1c(C)c2c(c(C)c1O)CCC(C)(CN1CCN(c3cc(N4CCCC4)nc(N4CCCC4)n3)CC1)O2.Cl.Cl` (stereo not shown) [Compound 1235, U-83836 dihydrochloride], the “Compound effect (percent receptor signaling in presence of test compound, relative lux units relative to the SCH23390 control)” value is reported as 103.

In the case of `COc1ccc2c(c1)CC[C@@H]1[C@@H]2CC[C@]2(C)[C@@H](NCCCCCCN3C(=O)C=CC3=O)CC[C@@H]12` [Compound 1236, U-73122], the “Compound effect (percent receptor signaling in presence of test compound, relative lux units relative to the SCH23390 control)” value was 80.

`O=C(O)C=Cc1c[nH]cn1` [Compound 1238, 4-Imidazoleacrylic acid]: the “Compound effect (percent receptor signaling in presence of test compound, relative lux units relative to the SCH23390 control)” value is 74.

Turning to `COc1ccccc1N1CCN(CCCNc2cc(=O)n(C)c(=O)n2C)CC1` [Compound 1239, Urapidil hydrochloride], the “Compound effect (percent receptor signaling in presence of test compound, relative lux units relative to the SCH23390 control)” value is given as 94.

Consider `COc1ccccc1N1CCN(CCCNc2c(C)c(=O)n(C)c(=O)n2C)CC1` [Compound 1240, Urapidil, 5-Methyl-], for which the “Compound effect (percent receptor signaling in presence of test compound, relative lux units relative to the SCH23390 control)” value is on record as 91.

As for `Brc1c(NC2=NCCN2)ccc2nccnc12` [Compound 1242, UK 14,304], the “Compound effect (percent receptor signaling in presence of test compound, relative lux units relative to the SCH23390 control)” value is reported as 87.

`CCCN(CCC)[C@H]1CCc2c(F)ccc(O)c2C1.Cl` [Compound 1244, S(-)-UH-301 hydrochloride]: the “Compound effect (percent receptor signaling in presence of test compound, relative lux units relative to the SCH23390 control)” value is on record as 90.

As to `CCCN(CCC)[C@@H]1CCc2c(F)ccc(O)c2C1.Cl` [Compound 1245, R(+)-UH-301 hydrochloride], the “Compound effect (percent receptor signaling in presence of test compound, relative lux units relative to the SCH23390 control)” value is on record as 97.

As for `CCCN(CCC)C1Cc2cc(OC)c(OC)cc2C1.O=C(O)/C=C\C(=O)O` [Compound 1249, U-99194A maleate], the “Compound effect (percent receptor signaling in presence of test compound, relative lux units relative to the SCH23390 control)” value was 97.

As to `N#CC(=C(/N)Sc1ccccc1N)/C(C#N)=C(/N)Sc1ccccc1N` [Compound 1250, U0126], the “Compound effect (percent receptor signaling in presence of test compound, relative lux units relative to the SCH23390 control)” value worked out at 108.

Regarding `CC[C@]1(O)C[C@@H]2CN(CCc3c([nH]c4ccccc34)[C@@](C(=O)OC)(c3cc4c(cc3OC)N(C)[C@H]3[C@@](O)(C(=O)OC)[C@H](OC(C)=O)[C@]5(CC)C=CCN6CC[C@]43[C@@H]65)C2)C1.O=S(=O)(O)O` [Compound 1251, Vinblastine sulfate salt], the “Compound effect (percent receptor signaling in presence of test compound, relative lux units relative to the SCH23390 control)” value came out at 118.

As for `COc1ccccc1NC(=O)Nc1nc(-c2cccnc2)nc2ccccc12` [Compound 1253, VUF 5574], the “Compound effect (percent receptor signaling in presence of test compound, relative lux units relative to the SCH23390 control)” value worked out at 111.

Take `CCOC(=O)C1=C[C@]2(CC)CCCN3CCc4c(n1c1ccccc41)[C@@H]32` [Compound 1254, Vinpocetine]: the “Compound effect (percent receptor signaling in presence of test compound, relative lux units relative to the SCH23390 control)” value is 148.

As to `CC[C@]1(O)C[C@H]2CN(CCc3c([nH]c4ccccc34)[C@@](C(=O)OC)(c3cc4c(cc3OC)N(C=O)[C@H]3[C@@](O)(C(=O)OC)[C@H](OC(C)=O)[C@]5(CC)C=CCN6CC[C@]43[C@@H]65)C2)C1` [Compound 1257, Vincristine sulfate], the “Compound effect (percent receptor signaling in presence of test compound, relative lux units relative to the SCH23390 control)” value is listed as 98.

`COc1cc2ncnc(Nc3ccc(O)cc3)c2cc1OC` [Compound 1260, WHI-P131]: the “Compound effect (percent receptor signaling in presence of test compound, relative lux units relative to the SCH23390 control)” value came to 90.

With `COC[C@H]1OC(=O)c2coc3c2[C@@]1(C)C1=C(C3=O)[C@@H]2CCC(=O)[C@@]2(C)C[C@H]1OC(C)=O` [Compound 1261, Wortmannin from Penicillium funiculosum], the “Compound effect (percent receptor signaling in presence of test compound, relative lux units relative to the SCH23390 control)” value was determined as 42.

For `CC(N)=NCc1cccc(CN)c1.Cl.Cl` [Compound 1262, 1400W dihydrochloride], the “Compound effect (percent receptor signaling in presence of test compound, relative lux units relative to the SCH23390 control)” value came to 96.

Turning to `CS(=O)(=O)O.Cc1c(C(=O)c2cccc3ccccc23)c2cccc3c2n1[C@H](CN1CCOCC1)CO3` [Compound 1264, (R)-(+)-WIN 55,212-2 mesylate], the “Compound effect (percent receptor signaling in presence of test compound, relative lux units relative to the SCH23390 control)” value came out at 58.

`C#C[C@]1(O)CC[C@H]2[C@@H]3CCC4=Cc5nc6nc7ccccc7n6cc5C[C@]4(C)[C@H]3CC[C@@]21C` [Compound 1265, WIN 62,577]: the “Compound effect (percent receptor signaling in presence of test compound, relative lux units relative to the SCH23390 control)” value is 59.

`Cc1cccc(C)c1N=C1NCCCS1` [Compound 1269, Xylazine hydrochloride]: the “Compound effect (percent receptor signaling in presence of test compound, relative lux units relative to the SCH23390 control)” value is 134.

In the case of `O=C(NCCNCC(O)COc1ccc(O)cc1)N1CCOCC1` (stereo not shown) [Compound 1270, Xamoterol hemifumarate], the “Compound effect (percent receptor signaling in presence of test compound, relative lux units relative to the SCH23390 control)” value stood at 112.

`Cc1cc(C(C)(C)C)cc(C)c1CC1=NCCN1` [Compound 1271, Xylometazoline hydrochloride]: the “Compound effect (percent receptor signaling in presence of test compound, relative lux units relative to the SCH23390 control)” value is reported as 85.

Consider `CCCn1c(=O)c2[nH]c(-c3ccc(OCC(=O)NCCN)cc3)nc2n(CCC)c1=O` [Compound 1272, Xanthine amine congener], for which the “Compound effect (percent receptor signaling in presence of test compound, relative lux units relative to the SCH23390 control)” value came to 90.

As to `COC(=O)[C@@H]1[C@H]2C[C@H]3c4[nH]c5ccccc5c4CCN3C[C@@H]2CC[C@@H]1O` [Compound 1273, Yohimbine hydrochloride], the “Compound effect (percent receptor signaling in presence of test compound, relative lux units relative to the SCH23390 control)” value was found to be 85.

With `OCc1ccc(-c2nn(Cc3ccccc3)c3ccccc23)o1` [Compound 1275, YC-1], the “Compound effect (percent receptor signaling in presence of test compound, relative lux units relative to the SCH23390 control)” value is 136.

On to `CCCOc1ccccc1-c1nc2nn[nH]c2c(=O)[nH]1` [Compound 1276, Zaprinast], for which the “Compound effect (percent receptor signaling in presence of test compound, relative lux units relative to the SCH23390 control)” value stood at 115.

As to `NS(=O)(=O)Cc1noc2ccccc12` [Compound 1277, Zonisamide sodium], the “Compound effect (percent receptor signaling in presence of test compound, relative lux units relative to the SCH23390 control)” value was found to be 130.

With `COc1cc(-c2ccc(=O)[nH]n2)ccc1OC(F)F` [Compound 1278, Zardaverine], the “Compound effect (percent receptor signaling in presence of test compound, relative lux units relative to the SCH23390 control)” value is listed as 125.

Take `CN1CCN(C(=O)OC2c3nccnc3C(=O)N2c2ccc(Cl)cn2)CC1` (stereo not shown) [Compound 1279, Zopiclone]: the “Compound effect (percent receptor signaling in presence of test compound, relative lux units relative to the SCH23390 control)” value turned out to be 99.

As to `CN(C)C/C=C(/c1ccc(Br)cc1)c1cccnc1` [Compound 1280, Zimelidine dihydrochloride], the “Compound effect (percent receptor signaling in presence of test compound, relative lux units relative to the SCH23390 control)” value amounted to 80.

As for “(-)-Bicuculline methbromide, 1(S), 9(R) [Compound 202]”, the “Compound effect (percent receptor signaling in presence of test compound, relative lux units relative to the SCH23390 control)” value was 94.

For the molecule (-)-Eseroline fumarate [Compound 504], the “Compound effect (percent receptor signaling in presence of test compound, relative lux units relative to the SCH23390 control)” value stood at 56.

For the molecule “(-)-Scopolamine methyl nitrate [Compound 1087]”, the “Compound effect (percent receptor signaling in presence of test compound, relative lux units relative to the SCH23390 control)” value is recorded as 113.

Turning to “Adenosine 3',5'-cyclic monophosphate [Compound 105]”, the “Compound effect (percent receptor signaling in presence of test compound, relative lux units relative to the SCH23390 control)” value turned out to be 100.

Regarding “Histamine, R(-)-alpha-methyl-, dihydrochloride [Compound 622]”, the “Compound effect (percent receptor signaling in presence of test compound, relative lux units relative to the SCH23390 control)” value came to 127.

The same assay, now with this note: 10 µM compound, 300 nM dopamine, 2 hr; hit = compound effect <20.
As for `N[C@@H](Cn1ccc(=O)[nH]c1=O)C(=O)O` [Compound 1266, S(-)-Willardiine], the “Compound effect (percent receptor signaling in presence of test compound, relative lux units relative to the SCH23390 control)” value stood at 99%.

In the case of `COc1ccccc1N1CCN(CCN(C(=O)C2CCCCC2)c2ccccn2)CC1.O=C(O)/C=C\C(=O)O` [Compound 1267, WAY-100635 maleate], the “Compound effect (percent receptor signaling in presence of test compound, relative lux units relative to the SCH23390 control)” value came to 101%.

`N[C@@H](Cn1cc(I)c(=O)[nH]c1=O)C(=O)O` [Compound 1268, S-5-Iodowillardiine]: the “Compound effect (percent receptor signaling in presence of test compound, relative lux units relative to the SCH23390 control)” value was found to be 130%.

In the case of `COc1ccc(CCN(C)CCc2ccc(OC)c(OC)c2)cc1OC.Cl` [Compound 1274, YS-035 hydrochloride], the “Compound effect (percent receptor signaling in presence of test compound, relative lux units relative to the SCH23390 control)” value was found to be 93%.

Regarding (+)-Catechin Hydrate [Compound 230], the “Compound effect (percent receptor signaling in presence of test compound, relative lux units relative to the SCH23390 control)” value amounted to 111%.

Regarding (-)-Perillic acid [Compound 965], the “Compound effect (percent receptor signaling in presence of test compound, relative lux units relative to the SCH23390 control)” value was determined as 87%.

For “(±)-PD 128,907 hydrochloride [Compound 1024]”, the “Compound effect (percent receptor signaling in presence of test compound, relative lux units relative to the SCH23390 control)” value is 95%.

Turning to (±)-Pindobind [Compound 1010], the “Compound effect (percent receptor signaling in presence of test compound, relative lux units relative to the SCH23390 control)” value is given as 65%.

As to Ceramide [Compound 235], the “Compound effect (percent receptor signaling in presence of test compound, relative lux units relative to the SCH23390 control)” value amounted to 87%.

On to Cortexolone maleate [Compound 1081], for which the “Compound effect (percent receptor signaling in presence of test compound, relative lux units relative to the SCH23390 control)” value is on record as 83%.

Consider “Dequalinium analog, C-14 linker [Compound 368]”, for which the “Compound effect (percent receptor signaling in presence of test compound, relative lux units relative to the SCH23390 control)” value was 39%.

As to IMID-4F hydrochloride [Compound 639], the “Compound effect (percent receptor signaling in presence of test compound, relative lux units relative to the SCH23390 control)” value was determined as 109%.
